target: T1, HEK-Blue-hTLR8 cells (Homo sapiens, UniProt Q9NR97); assay: HEK-Blue-hTLR8 cell inhibition assay; type: cell-based; conditions: R848 3 µM, 16 h, OD 620 nm, read-out: TLR8 IC50
T1 construct: expressed in transfected cells; host or cells: HEK-Blue-hTLR8 cells (HEK293-derived reporter line)
T1 sequence (Q9NR97 27-1041): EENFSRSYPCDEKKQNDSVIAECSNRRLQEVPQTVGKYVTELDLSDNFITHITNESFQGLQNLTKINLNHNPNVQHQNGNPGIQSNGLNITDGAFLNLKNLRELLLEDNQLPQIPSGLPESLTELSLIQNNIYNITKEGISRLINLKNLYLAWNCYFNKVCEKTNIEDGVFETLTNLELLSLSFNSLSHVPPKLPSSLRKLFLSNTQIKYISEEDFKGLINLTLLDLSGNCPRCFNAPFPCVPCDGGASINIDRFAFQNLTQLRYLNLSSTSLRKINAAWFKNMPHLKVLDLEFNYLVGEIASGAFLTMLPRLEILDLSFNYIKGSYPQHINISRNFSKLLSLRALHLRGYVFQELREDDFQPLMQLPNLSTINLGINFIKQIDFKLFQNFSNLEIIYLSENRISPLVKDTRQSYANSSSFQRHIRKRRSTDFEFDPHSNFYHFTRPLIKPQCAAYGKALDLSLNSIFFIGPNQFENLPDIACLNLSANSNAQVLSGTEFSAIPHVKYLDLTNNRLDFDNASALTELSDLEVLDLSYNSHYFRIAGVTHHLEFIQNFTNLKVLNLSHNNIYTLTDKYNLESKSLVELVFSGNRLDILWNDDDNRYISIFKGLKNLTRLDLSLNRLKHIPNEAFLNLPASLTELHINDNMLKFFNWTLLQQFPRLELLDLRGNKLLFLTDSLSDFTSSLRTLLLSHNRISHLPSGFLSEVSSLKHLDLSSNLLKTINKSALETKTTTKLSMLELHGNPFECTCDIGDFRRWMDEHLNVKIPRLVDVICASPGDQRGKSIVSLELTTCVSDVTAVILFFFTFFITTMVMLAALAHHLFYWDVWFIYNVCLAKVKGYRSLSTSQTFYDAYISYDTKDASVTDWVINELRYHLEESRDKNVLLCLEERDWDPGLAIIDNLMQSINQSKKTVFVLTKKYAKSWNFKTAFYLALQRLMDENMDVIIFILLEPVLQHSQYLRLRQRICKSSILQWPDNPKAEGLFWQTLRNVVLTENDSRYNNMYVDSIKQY
In short: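 Cells were pre-incubated 4 h, then co-treated 16 h at 37 °C with compound (10 doses, 0.5–10000 nM final) plus R848 (0.8 µM for TLR7, 3 µM for TLR8) or ODN2006 (1 µM, TLR9). Reporter OD620 gave inhibition relative to DMSO blank and agonist-only controls; IC50 came from curve fitting.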

SMILES | IC50 [nM]
N#Cc1ccc(N2C[C@]3(c4nnc([C@H]5CC[C@H](N)CC5)o4)C[C@]3(C(F)(F)F)C2)c2cccnc12 [Compound 20, 5-((1S,5R)-1-(5-((1R,4S)-4-aminocyclohexyl)-1,3,4-oxadiazol-2-yl)-5-(trifluoromethyl)-3-azabicyclo[3.1.0]hexan-3-yl)quinoline-8-carbonitrile] | < 100
CN1CCC(Oc2nnc([C@]34CN(c5ccc(C#N)n6ncc(F)c56)C[C@@]3(C(F)(F)F)C4)o2)CC1 [Compound 31, 3-fluoro-4-((1S,5R)-1-(5-((1-methylpiperidin-4-yl)oxy)-1,3,4-oxadiazol-2-yl)-5-(trifluoromethyl)-3-azabicyclo[3.1.0]hexan-3-yl)pyrazolo[1,5-a]pyridine-7-carbonitrile] | < 100
CN1CCC(c2nnc([C@]34CN(c5ccc(C#N)c6ncccc56)C[C@@]3(C(F)(F)F)C4)[nH]2)CC1 [Compound 9, 5-((1S,5R)-1-(5-(1-methylpiperidin-4-yl)-4H-1,2,4-triazol-3-yl)-5-(trifluoromethyl)-3-azabicyclo[3.1.0]hexan-3-yl)quinoline-8-carbonitrile] | < 100
N#Cc1ccc(N2C[C@]3(c4nnc(C5(F)CCNC5)o4)C[C@]3(C(F)(F)F)C2)c2cccnc12 (stereo partly drawn) [Compound 46, 5-((1S,5R)-1-(5-(3-fluoropyrrolidin-3-yl)-1,3,4-oxadiazol-2-yl)-5-(trifluoromethyl)-3-azabicyclo[3.1.0]hexan-3-yl)quinoline-8-carbonitrile] | < 100
FC(F)(F)c1ccc(N2C[C@]3(c4nnc(C5(F)CCNCC5)o4)C[C@]3(C(F)(F)F)C2)c2cccnc12 [Compound 3, 2-(4-fluoropiperidin-4-yl)-5-((1S,5R)-5-(trifluoromethyl)-3-(8-(trifluoromethyl)quinolin-5-yl)-3-azabicyclo[3.1.0]hexan-1-yl)-1,3,4-oxadiazole] | < 100
CN1CC(c2nnc([C@]34CN(c5ccc(C#N)c6ncccc56)C[C@@]3(C(F)(F)F)C4)o2)C1 [Compound 39, 5-((1S,5R)-1-(5-(1-methylazetidin-3-yl)-1,3,4-oxadiazol-2-yl)-5-(trifluoromethyl)-3-azabicyclo[3.1.0]hexan-3-yl)quinoline-8-carbonitrile] | < 100
CN1CCC(Oc2nnc([C@]34CN(c5ccc(C#N)c6ncccc56)C[C@@]3(C(F)(F)F)C4)o2)CC1 [Compound 15, 5-((1S,5R)-1-(5-((1-methylpiperidin-4-yl)oxy)-1,3,4-oxadiazol-2-yl)-5-(trifluoromethyl)-3-azabicyclo[3.1.0]hexan-3-yl)quinoline-8-carbonitrile] | < 100
CC1(C)CC(Cc2nnc([C@]34CN(c5ccc(C#N)c6ncccc56)C[C@@]3(C(F)(F)F)C4)o2)CC(C)(C)N1 [Compound 26, 5-((1S,5R)-1-(5-((2,2,6,6-tetramethylpiperidin-4-yl)methyl)-1,3,4-oxadiazol-2-yl)-5-(trifluoromethyl)-3-azabicyclo[3.1.0]hexan-3-yl)quinoline-8-carbonitrile] | < 100
CN1CC2CC1CC2c1nnc([C@]23CN(c4ccc(C#N)c5ncccc45)C[C@@]2(C(F)(F)F)C3)o1 (stereo partly drawn) [Compound 14, 5-((1S,5R)-1-(5-(2-methyl-2-azabicyclo[2.2.1]heptan-5-yl)-1,3,4-oxadiazol-2-yl)-5-(trifluoromethyl)-3-azabicyclo[3.1.0]hexan-3-yl)quinoline-8-carbonitrile] | < 100

Other lines, results leading:

IC50 [nM] | SMILES
< 1000 | CN1CCC(Cc2nnc([C@]34CN(c5ccc(C#N)c6ncccc56)C[C@@]3(C(F)(F)F)C4)n2C)CC1 [Compound 38, 5-((1S,5R)-1-(4-methyl-5-((1-methylpiperidin-4-yl)methyl)-4H-1,2,4-triazol-3-yl)-5-(trifluoromethyl)-3-azabicyclo[3.1.0]hexan-3-yl)quinoline-8-carbonitrile]
< 100 | CN1CCC(F)(c2nnc([C@]34CN(c5ccc(C#N)n6nccc56)C[C@@]3(C(F)(F)F)C4)o2)CC1 [Compound 90, 4-((1S,5R)-1-(5-(4-fluoro-1-methylpiperidin-4-yl)-1,3,4-oxadiazol-2-yl)-5-(trifluoromethyl)-3-azabicyclo[3.1.0]hexan-3-yl)pyrazolo[1,5-a]pyridine-7-carbonitrile]
< 100 | N#Cc1ccc(N2C[C@]3(c4nnc(CCN5CCOCC5)o4)C[C@]3(C(F)(F)F)C2)c2cccnc12 [Compound 43, 5-((1S,5R)-1-(5-(morpholinoethyl)-1,3,4-oxadiazol-2-yl)-5-(trifluoromethyl)-3-azabicyclo[3.1.0]hexan-3-yl)quinoline-8-carbonitrile]
< 100 | CN1CC(Cc2nnc([C@]34CN(c5ccc(C(F)(F)F)c6ncccc56)C[C@@]3(C(F)(F)F)C4)o2)C1 [Compound 95, 2-((1-methylazetidin-3-yl)methyl)-5-((1S,5R)-5-(trifluoromethyl)-3-(8-(trifluoromethyl)quinolin-5-yl)-3-azabicyclo[3.1.0]hexan-1-yl)-1,3,4-oxadiazole]
< 1000 | CN1CCC(c2nnc([C@]34CN(c5c(Br)cc(C#N)n6ncc(Br)c56)C[C@@]3(C(F)(F)F)C4)o2)CC1 [Compound 85, 3,5-dibromo-4-((1S,5R)-1-(5-(1-methylpiperidin-4-yl)-1,3,4-oxadiazol-2-yl)-5-(trifluoromethyl)-3-azabicyclo[3.1.0]hexan-3-yl)pyrazolo[1,5-a]pyridine-7-carbonitrile]
< 1000 | N#Cc1ccc(N2C[C@]3(c4nnc(CN5CCOCC5)o4)C[C@]3(C(F)(F)F)C2)c2cccnc12 [Compound 40, 5-((1S,5R)-1-(5-(morpholinomethyl)-1,3,4-oxadiazol-2-yl)-5-(trifluoromethyl)-3-azabicyclo[3.1.0]hexan-3-yl)quinoline-8-carbonitrile]
< 100 | CN1CCC(c2nnc([C@]34CN(c5ccc(OC(F)(F)F)c6ncccc56)C[C@@]3(C(F)(F)F)C4)o2)CC1 [Compound 64, 2-(1-methylpiperidin-4-yl)-5-((1S,5R)-5-(trifluoromethyl)-3-(8-(trifluoromethoxy)quinolin-5-yl)-3-azabicyclo[3.1.0]hexan-1-yl)-1,3,4-oxadiazole]
< 100 | CN1CC(F)(c2nnc([C@]34CN(c5ccc(C#N)c6ncccc56)C[C@@]3(C(F)(F)F)C4)o2)C1 [Compound 49, 5-((1S,5R)-1-(5-(3-fluoro-1-methylazetidin-3-yl)-1,3,4-oxadiazol-2-yl)-5-(trifluoromethyl)-3-azabicyclo[3.1.0]hexan-3-yl)quinoline-8-carbonitrile]
< 100 | CN1CCC(c2nnc([C@]34CN(c5c(Br)cc(C#N)n6nccc56)C[C@@]3(C(F)(F)F)C4)o2)CC1 [Compound 86, 5-bromo-4-((1S,5R)-1-(5-(1-methylpiperidin-4-yl)-1,3,4-oxadiazol-2-yl)-5-(trifluoromethyl)-3-azabicyclo[3.1.0]hexan-3-yl)pyrazolo[1,5-a]pyridine-7-carbonitrile]
< 100 | CN1CCC(c2nnc([C@]34CN(c5ccc(C#N)c6ncccc56)C[C@@]3(C(F)(F)F)C4)o2)C(F)C1 (stereo partly drawn) [Compound 50, 5-((1S,5R)-1-(5-(3-fluoro-1-methylpiperidin-4-yl)-1,3,4-oxadiazol-2-yl)-5-(trifluoromethyl)-3-azabicyclo[3.1.0]hexan-3-yl)quinoline-8-carbonitrile]
< 1000 | CN1CCC(c2nnc([C@]34CN(c5ccc(C(F)(F)F)n6nccc56)C[C@@]3(C(F)(F)F)C4)o2)CC1 [Compound 87, 2-(1-methylpiperidin-4-yl)-5-((1S,5R)-5-(trifluoromethyl)-3-(7-(trifluoromethyl)pyrazolo[1,5-a]pyridin-4-yl)-3-azabicyclo[3.1.0]hexan-1-yl)-1,3,4-oxadiazole]
< 100 | N#Cc1ccc(N2C[C@]3(c4nnc(C56CCC(N)(CC5)CC6)o4)C[C@]3(C(F)(F)F)C2)c2cccnc12 [Compound 52, 5-((1S,5R)-1-(5-(4-aminobicyclo[2.2.2]octan-1-yl)-1,3,4-oxadiazol-2-yl)-5-(trifluoromethyl)-3-azabicyclo[3.1.0]hexan-3-yl)quinoline-8-carbonitrile]
< 100 | FC(F)(F)Oc1ccc(N2C[C@]3(c4nnc(C5(F)CCNCC5)o4)C[C@]3(C(F)(F)F)C2)c2cccnc12 [Compound 96, 2-(4-fluoropiperidin-4-yl)-5-((1S,5R)-3-(8-(trifluoromethoxy)quinolin-5-yl)-5-(trifluoromethyl)-3-azabicyclo[3.1.0]hexan-1-yl)-1,3,4-oxadiazole]

Reference: patent EP4806891A1 (Kangbaida (Sichuan) Biotechnology Co., Ltd., priority 2023, dated 2025)
